Laboratory results as given in patent publication US8895242B2, “Single molecule nucleic acid nanoparticles” (The Regents of the University of California, priority 2009, dated 2014).

Tests used:
[1] = test system: cells; experiment: Doxorubicin toxicity to cells with and without untargeted DNA particles; format: cell-based
Method: The IC50 was determined to be 0.1 μg of Doxo for […]. […] Targeted DNA particles may be selected or a targeting moiety added. (2) At the same time, DNA nanoparticles absorbed Doxo, which is good for our purpose of loading DNA with drugs (FIG. 45).

[2] = test system: DNA nanoparticles; experiment: Doxorubicin fluorescence quenching on DNA nanoparticles; conditions: indicates doxorubicin binding to the particles
Text: With increasing concentration of Doxorubicin, the DNA nanoparticles become saturated and free Doxorubicin in solution can fluoresce.
The fluorescence of doxorubicin is quenched with the addition of DNA nanoparticles, indicating doxorubicin binding to the particles (FIG. 44).

[3] = test system: B16 melanoma; experiment: Intra-tumoral injection into B16 melanoma, immunohistochemistry of immune cell recruitment; format: in vivo, mice
Method: FIG. 23 provides data relating to Hp-91(270 μg), pI:C (125 μg), or Pam3Cys (125 μg) injected into B16 melanoma and the mice were sacrificed 24 h after the injection. The tumor was embedded in OCT and frozen sections were stained for Mac 1 (macrophages), CD11c (DCs), and CD3 (T cells) by immuno-histochemistry. Pictures were taken in brightfield at 20×.
In certain subsets of breast tumors the presence of tumor-associated macrophages is associated with […]. Thus, in order to maximize the anti-tumor immune response we tested two TLR agonists; pI:C (TLR3 agonist) and Pam3Cys (TLR2 agonist), and our immunostimulatory peptides for their ability to recruit immune cells to the tumor. Hp-91, pI:C, or Pam3Cys were injected into B16 melanoma, the mice were sacrificed 24 h after the injection and the tumor was frozen and sections stained for the indicated markers. […] This is a very promising result as Hp-91 will not only contribute to the recruitment of DCs, but also mature the arriving DCs. Thus in the context of antigen release by concurrent local cytotoxic therapy, we expect to create a very favorable environment for the uptake of tumor antigen by DCs and their subsequent activation. In addition, CD8 T cells after being primed in the draining lymph nodes are expected to be recruited in higher numbers to the tumor site via the peptide leading to a strong immune response and tumor killing.

[4] = test system: pancreatic cancer cell line panc02; experiment: Flow cytometry binding of DNA nanoparticle clones to panc02; format: cell-based, mouse; conditions: fluorescently labeled
Text: FIGS. 57A and 57B summarizes the results of the selection of pancreatic cancer cell line panc02 targeting particles. The mouse pancreatic lines panc02 was panned with a single module DNA nanoparticle library. After the 3rd and 4th round, the selected pool was fluorescently labeled and tested on the target cells by flow cytometry (FIG. 57A). A shift indicating enrichment of binding clones was observed. After the 5th and 6th round, clones were generated from the selected pool and sequenced (TABLE 6). 10 of the 12 sequenced clones contained a specific sequence motif: AATGGGGCG (SEQ ID NO:12). In two of the clones the motif appears in the same frame (C45 and C58). Two independent clones for each we recovered with the sequence of clone 40 and 46.

[5] = Hp-91 270 μg, pI:C 125 μg, Pam3Cys 125 μg, 24 h after injection
[6] = higher dose 500 μg, data not shown

In the case of `COc1cccc2c1C(=O)c1c(O)c3c(c(O)c1C2=O)C[C@@](O)(C(=O)CO)C[C@@H]3O[C@H]1C[C@H](N)[C@H](O)[C@H](C)O1` [Doxo, Doxorubicin], the IC50 [1] is reported as 0.1 µg, the “doxorubicin fluorescence on addition of DNA nanoparticles” value ([2]; listed as Doxorubicin) is reported as “fluorescence is quenched” and the “doxorubicin fluorescence on addition of DNA nanoparticles” value ([2]; listed as doxorubicin) is reported as “quenched”.

With `CCCCCCCCCCCCCCCC(=O)N[C@@H](CSC[C@@H](COC(=O)CCCCCCCCCCCCCCC)OC(=O)CCCCCCCCCCCCCCC)C(=O)O` [Pam3Cys] the “recruitment of DCs (CD11c+) into the tumor” value [3, 5] was “only Hp-91”, the “recruitment of T cells (CD3+) into the tumor” value [3, 5] was “only Hp-91” and the “recruitment of macrophages into the tumor” value [3, 5] was “caused recruitment of macrophages”. The “DC recruitment into the tumor” value [3, 6] was “no T cell and DC recruitment” and the “T cell recruitment into the tumor” value [3, 6] was “no T cell”.

B1: C50: panc02-selection clone lacking the … motif, SEQ ID NO:11 (nucleic acid)
DNA: TGCTTTTTGGAACTCCTGCTCAACTTGTGTCCTCTTGAAAGAGTCGGTCATACCTATAAGAATACTTTTATACAGCCAAAGGTGACGTTGAGTTGGATCC
modifications: DNA, backbone and methylation of C not given here; rolling circle concatemer folded into DNA nanoparticle
With B1 the “binding to panc02” value [4] was “do not”.

B2: C21: panc02-selection clone lacking the … motif, SEQ ID NO:10 (nucleic acid)
DNA: TGCTTTTTGGAACTCCTGCTAGACGTTAGATGTATCTGACCTTACGACTTCAACTTCCTTCTAAATCTGCCCACAACGATGGTGACGTTGAGTTGGATCC
modifications: DNA, backbone and methylation of C not given here; rolling circle concatemer folded into DNA nanoparticle
For B2, the “binding to panc02” value [4] was “do not”.
